According to EP3061750A1, “PYRAZOLE AMIDE COMPOUND CONTAINING DIPHENYL ETHER, AND APPLICATION THEREOF, AND PESTICIDE COMPOSITION” (Central China Normal University, priority 2013, dated 2015):
Like-named read-outs stand apart in the source and are kept apart here.

Legend:
[1] = system: Cucumber powdery mildew (Sphaerotheca uliginea); test: pot in vivo assay of bactericidal activity, cucumber powdery mildew; conditions: for pest or weed control at 200 µg/mL: Cucumis sativus, read-out: Efficacy(%) cucumber powery mildew
Source text: (§1) This test is used to determine the bactericidal activity of the compounds prepared in Example 1, Preparation Examples 1 and 2.
(§2) The targets used in the test example are rice sheath blight and cucumber powdery mildew.
(§3) Test Method: According to "Standard Practice for determination of pesticide biological activity (SOP)", pyrazole amide compound containing diphenyl ether was dispensed to 5% emulsifiable concentrates (hereinafter referred to as 5% EC), […] method (pot in vivo assay). The screening results on the two test targets of the compounds prepared in Example 1, Preparation Examples 1 and 2 were shown in Table 4.
Cucumber powdery mildew (Sphaerotheca uliginea)
A cucumber seedling with uniform growth in true leaf stage was chosen, and dried in shade for 24h after spray treatment. Fresh cucumber powdery mildew spores on the cucumber leaves were collected and washed, and filtered through a double gauze to prepare a spore suspension with concentration of about 100,000 / ml, then spray inoculation was applied. The test materials inoculated were moved into artificial climate with relative humidity of 60-70% and temperature of 21-23 °C (indoor lighting), after about 10 days, investigating and grading were carried out according to the incidence of the blank control, and the control effect was calculated according to the disease index.
(§4) Investigation method and grading standard adopted "Guidelines for the field efficacy trials of pesticides", and the control effect was calculated with the disease index. The disease index = Σ(number of diseased leaves at each grade×relative grade value) × 100/(total number of leaves×9); [formula] Control effect (%) = (disease index of control−disease index of treated) × 100/disease index of control. [formula]

succinate dehydrogenase = biological target: T1, succinate dehydrogenase (Sus scrofa, UniProt A5GZW8+D0VWV4+Q007T0); test: inhibitory activity on succinate dehydrogenase (DCIP reduction at 600 nm); format: biochemical, pig
T1 construct: succinate dehydrogenase, which was isolated from pig hearts; from tissue; host or cells: pig heart
T1 sequence (Q007T0 29-280): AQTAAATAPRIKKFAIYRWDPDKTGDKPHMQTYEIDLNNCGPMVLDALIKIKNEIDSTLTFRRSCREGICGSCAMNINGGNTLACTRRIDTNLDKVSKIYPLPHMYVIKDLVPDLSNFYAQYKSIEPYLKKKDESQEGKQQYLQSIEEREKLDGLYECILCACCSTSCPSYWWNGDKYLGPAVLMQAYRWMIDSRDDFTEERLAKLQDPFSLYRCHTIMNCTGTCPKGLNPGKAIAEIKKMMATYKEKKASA
T1 sequence (D0VWV4 30-169): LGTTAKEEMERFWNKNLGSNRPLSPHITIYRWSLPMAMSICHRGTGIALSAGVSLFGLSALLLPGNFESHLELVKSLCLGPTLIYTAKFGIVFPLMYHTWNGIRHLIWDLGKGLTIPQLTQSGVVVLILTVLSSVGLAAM
T1 sequence (A5GZW8 57-159 limits assumed): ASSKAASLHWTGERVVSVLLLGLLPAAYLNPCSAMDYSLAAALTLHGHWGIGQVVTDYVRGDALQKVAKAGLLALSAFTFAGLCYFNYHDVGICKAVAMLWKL
T1 sequence (Q0QF01 43-664 partner): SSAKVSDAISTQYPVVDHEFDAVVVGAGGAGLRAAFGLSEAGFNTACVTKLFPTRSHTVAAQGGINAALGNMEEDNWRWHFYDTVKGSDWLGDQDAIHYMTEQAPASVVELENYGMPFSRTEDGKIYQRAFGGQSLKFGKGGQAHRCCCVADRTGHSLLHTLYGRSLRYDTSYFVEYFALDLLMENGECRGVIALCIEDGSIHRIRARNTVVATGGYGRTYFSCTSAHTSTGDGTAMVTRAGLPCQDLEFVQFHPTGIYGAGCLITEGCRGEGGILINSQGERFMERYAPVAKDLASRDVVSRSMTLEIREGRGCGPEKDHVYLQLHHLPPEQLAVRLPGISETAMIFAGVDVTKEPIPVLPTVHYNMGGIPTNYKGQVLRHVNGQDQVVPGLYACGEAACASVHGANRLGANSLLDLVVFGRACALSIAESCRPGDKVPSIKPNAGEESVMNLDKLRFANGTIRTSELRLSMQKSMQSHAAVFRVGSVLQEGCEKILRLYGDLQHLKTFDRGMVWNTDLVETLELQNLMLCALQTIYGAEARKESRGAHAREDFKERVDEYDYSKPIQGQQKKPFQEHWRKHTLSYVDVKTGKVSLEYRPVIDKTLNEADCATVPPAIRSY
Experimental: This test was used to determine the inhibitory activity on the succinate dehydrogenase of the compounds prepared in Example 1, Preparation Examples 1 and 2 .
The enzyme used in the test example was succinate dehydrogenase, which was isolated from pig hearts.
Test Method: total volume was 1.8ml, the system comprised 100mM Na2HPO4-NaH2PO4 buffer (pH7.4), 0.3mM EDTA, 20mM sodium succinate, 53µM DCIP (2,6-dichloro indophenol sodium), 2nM succinate dehydrogenase. In water bath with 23 °C of constant temperature and 600rpm magnetic stirring, the reduction of the light absorption of substrate DCIP was monitored at a wavelength of 600nm, the experimental points within the linear range were collected, that is, the experimental points in which the consumption of substrate was controlled not exceeding 5% were collected. The molar extinction coefficient of DCIP was 21mM^-1cm^-1. The reduction amount of DCIP during the reaction time was calculated and linear slope was fitted, and then the initial velocity of the reaction was obtained by deducting the baseline slope.

[2] = system: Rice sheath blight (Rhizoctonia solani); test: pot in vivo assay of bactericidal activity, rice sheath blight; conditions: for pest or weed control at 200 µg/mL: Rhizoctonia solani, read-out: Efficacy(%) rice sheath blight
Source text: as §1, §2
as §3, with “EC), the” for “EC),”
Rice sheath blight (Rhizoctonia solani)
Two potted rice seedlings with uniform growth in true leaf stage were chosen, and dried by air after spray treatment. The side of bacteria cake with mycelium was closely attached on the leaves, after cultured at 22-26 °C under dark light in a moisture preserving manner for 24h, then cultured with natural light for about 4 days. The diameter of disease spot of each inoculating point was measured by using a caliper after the control material was fully attacked by disease, and the control effect was calculated.
as §4

[3] = concentration 200 mg/L, 5% EC, pot

## Cc1cccc(Oc2ccccc2NC(=O)c2cn(C)nc2C(F)F)c1C [III-14]
[1]
  pest or weed control at 200 µg/mL: 0%
Succinate dehydrogenase
  IC50: 3220 ± 1330 nM
[2]
  pest or weed control at 200 µg/mL: 65.9%

## Cn1cc(C(=O)Nc2ccccc2Oc2ccc(C(C)(C)C)cc2)c(C(F)F)n1 [Comparative compound 21, reference compound]
[1]
  pest or weed control at 200 µg/mL: 0%
Succinate dehydrogenase
  IC50: 1180 ± 13.7 nM
Succinate dehydrogenase; read-out: inhibition ratio(%)
  inhibition at 0.1 µM: 0%
  inhibition at 0.2 µM: 24.7%
  inhibition at 0.3 µM: 27.4%
  inhibition at 0.5 µM: 34.6%
  inhibition at 1 µM: 46.9%
  inhibition at 3 µM: 60.7%
  inhibition at 10 µM: 79.4%
  inhibition at 50 µM: 80.8%
[2]
  pest or weed control at 200 µg/mL: 22.3%

## Cc1cc(C)cc(Oc2ccccc2NC(=O)c2cn(C)nc2C(F)F)c1 [III-16]
[1]
  pest or weed control at 200 µg/mL: 0%
Succinate dehydrogenase
  IC50: 2030 ± 1220 nM
[2]
  pest or weed control at 200 µg/mL: 50%

## Cn1cc(C(=O)Nc2ccccc2Oc2cccc(Cl)c2)c(C(F)(F)F)n1 [III-1]
[1]
  pest or weed control at 200 µg/mL: 22.2%
Succinate dehydrogenase
  IC50: 36900 ± 1470 nM
[2]
  pest or weed control at 200 µg/mL: 68.6%

## Cn1cc(C(=O)Nc2ccccc2Oc2ccc(Cl)cc2)c(C(F)(F)F)n1 [III-9]
[1]
  pest or weed control at 200 µg/mL: 0%
Succinate dehydrogenase; succinate dehydrogenase isolated from pig hearts, pH7.4, 23 °C
  IC50: 4900 ± 1280 nM
[2]
  pest or weed control at 200 µg/mL: 66.3%

## Cn1cc(C(=O)Nc2ccccc2Oc2ccc(Cl)cc2Cl)c(C(F)F)n1 [Compound I]
[1]
  pest or weed control at 200 µg/mL: 100%
[1]; concentration 100 mg/L
  efficacy on cucumber powery mildew(%): 0%
Succinate dehydrogenase
  IC50: 401 ± 10.3 nM
Succinate dehydrogenase; read-out: inhibition ratio(%)
  inhibition at 0.03 µM: 18.3%
  inhibition at 0.05 µM: 21.6%
  inhibition at 0.1 µM: 27%
  inhibition at 0.2 µM: 37.4%
  inhibition at 0.3 µM: 42.1%
  inhibition at 0.5 µM: 52.3%
  inhibition at 1 µM: 66.9%
  inhibition at 10 µM: 74.4%
  inhibition at 50 µM: 73%
[2]
  pest or weed control at 200 µg/mL: 100%
[2]; concentration 1 mg/L
  efficacy on rice sheath bilght(%): 20.74%
[2]; concentration 1.5 mg/L
  efficacy on rice sheath bilght(%): 45.38%
[2]; concentration 3.125 mg/L
  efficacy on rice sheath bilght(%): 65.37%
[2]; concentration 6.25 mg/L
  efficacy on rice sheath bilght(%): 68.77%
[2]; concentration 12.5 mg/L
  efficacy on rice sheath bilght(%): 81.72%
[2]; concentration 25 mg/L
  efficacy on rice sheath bilght(%): 95%
[2]; concentration 50 mg/L
  efficacy on rice sheath bilght(%): 98%
[2]; concentration 100 mg/L
  efficacy on rice sheath bilght(%): 100%

## Cn1cc(C(=O)Nc2ccccc2Oc2ccc(C(F)(F)F)cc2Cl)c(C(F)F)n1 [Compound II]
[1]; [3]
  pest or weed control at 200 µg/mL: 100%
[1]; concentration 6.25 mg/L
  efficacy on cucumber powery mildew(%): 0%
[1]; concentration 12.5 mg/L
  efficacy on cucumber powery mildew(%): 66.67%
[1]; concentration 25 mg/L
  efficacy on cucumber powery mildew(%): 94.44%
[1]; concentration 50 mg/L
  efficacy on cucumber powery mildew(%): 100%
[1]; concentration 100 mg/L
  efficacy on cucumber powery mildew(%): 100%
Succinate dehydrogenase
  IC50: 48.4 ± 1.71 nM
Succinate dehydrogenase; concentration 0.01 µM, read-out: inhibition ratio(%)
  inhibition at 0.01 µM: 11.7%
Succinate dehydrogenase; concentration 0.02 µM, read-out: inhibition ratio(%)
  inhibition at 0.02 µM: 20.8%
Succinate dehydrogenase; concentration 0.03 µM, read-out: inhibition ratio(%)
  inhibition at 0.03 µM: 31.8%
Succinate dehydrogenase; concentration 0.05 µM, read-out: inhibition ratio(%)
  inhibition at 0.05 µM: 47.1%
Succinate dehydrogenase; concentration 0.1 µM, read-out: inhibition ratio(%)
  inhibition at 0.1 µM: 60.7%
Succinate dehydrogenase; concentration 0.2 µM, read-out: inhibition ratio(%)
  inhibition at 0.2 µM: 75.3%
Succinate dehydrogenase; concentration 0.5 µM, read-out: inhibition ratio(%)
  inhibition at 0.5 µM: 83.8%
Succinate dehydrogenase; concentration 1 µM, read-out: inhibition ratio(%)
  inhibition at 1 µM: 91.4%
Succinate dehydrogenase; concentration 10 µM, read-out: inhibition ratio(%)
  inhibition at 10 µM: 97.9%
Succinate dehydrogenase; concentration 50 µM, read-out: inhibition ratio(%)
  inhibition at 50 µM: 100%
[2]; [3]
  pest or weed control at 200 µg/mL: 100%
[2]; concentration 0.75 mg/L
  efficacy on rice sheath bilght(%): 43.75%
[2]; concentration 1.5 mg/L
  efficacy on rice sheath bilght(%): 55.34%
[2]; concentration 3.125 mg/L
  efficacy on rice sheath bilght(%): 68.68%
[2]; concentration 6.25 mg/L
  efficacy on rice sheath bilght(%): 70.43%
[2]; concentration 12.5 mg/L
  efficacy on rice sheath bilght(%): 94.62%
[2]; concentration 25 mg/L
  efficacy on rice sheath bilght(%): 98.66%
[2]; concentration 50 mg/L
  efficacy on rice sheath bilght(%): 100%
[2]; concentration 100 mg/L
  efficacy on rice sheath bilght(%): 100%

## COc1cc(Oc2ccccc2NC(=O)c2cn(C)nc2C(F)F)cc(OC)c1OC [III-5]
[1]
  pest or weed control at 200 µg/mL: 0%
Succinate dehydrogenase
  IC50: > 100000 nM
[2]
  pest or weed control at 200 µg/mL: 0%

## Cn1cc(C(=O)Nc2ccccc2Oc2ccccc2Cl)c(C(F)(F)F)n1 [III-8]
[1]
  pest or weed control at 200 µg/mL: 0%
Succinate dehydrogenase
  IC50: 1980 ± 1390 nM
[2]
  pest or weed control at 200 µg/mL: 81.9%

## Cn1cc(C(=O)Nc2ccccc2Oc2ccc(Cl)cc2Cl)c(C(F)(F)F)n1 [III-2]
[1]
  pest or weed control at 200 µg/mL: 72.2%
Succinate dehydrogenase
  IC50: 2700 ± 1370 nM
[2]
  pest or weed control at 200 µg/mL: 0%
